Measurements as given in paper PMC5218480 (PLoS ONE, 2017).

Tested on: MV-4-11 cells
Assay: Gene expression microarray analysis (Affymetrix PrimeView) and GSEA
Assay type: cell-based, human
Parameters: RFU PODN (11730768_x_at) / Fold change /veh PODN (11730768_x_at) / RFU LINC00158 (11744669_a_at) / Fold change /veh LINC00158 (11744669_a_at) / RFU DUSP10 (11751237_a_at) / Fold change /veh DUSP10 (11751237_a_at) / RFU ID3 (11757404_x_at) / Fold change /veh ID3 (11757404_x_at) / RFU PLEKHG5 (11737974_s_at) / Fold change /veh PLEKHG5 (11737974_s_at) / RFU LRRC4B (11730491_at) / Fold change /veh LRRC4B (11730491_at) / RFU GIMAP4 (11747438_a_at) / Fold change /veh GIMAP4 (11747438_a_at) / RFU KRT8 (11758183_x_at) / Fold change /veh KRT8 (11758183_x_at) / RFU CNN1 (11734310_a_at) / Fold change /veh CNN1 (11734310_a_at) / RFU VPS37D (11726825_at) / Fold change /veh VPS37D (11726825_at) / RFU C10orf10 (11716522_x_at) / Fold change /veh C10orf10 (11716522_x_at) / RFU KIR2DL2 /// KIR2DL4 /// KIR2DL5A /// KIR2DL5B /// KIR2DS1 /// KIR2DS2 /// KIR2DS3 /// KIR2DS4 /// KIR3DL3 /// KIR3DL3 /// KIR3DS1 (11738374_at) / Fold change /veh KIR2DL2 /// KIR2DL4 /// KIR2DL5A /// KIR2DL5B /// KIR2DS1 /// KIR2DS2 /// KIR2DS3 /// KIR2DS4 /// KIR3DL3 /// KIR3DL3 /// KIR3DS1 (11738374_at) / RFU C1QL1 (11718748_at) / Fold change /veh C1QL1 (11718748_at) / RFU TMPRSS4 (11747572_a_at) / Fold change /veh TMPRSS4 (11747572_a_at) / RFU HAMP (11756126_x_at) / Fold change /veh HAMP (11756126_x_at) / RFU RNFT2 (11725882_a_at) / Fold change /veh RNFT2 (11725882_a_at) / RFU NR4A2 (11747474_a_at) / Fold change /veh NR4A2 (11747474_a_at) / RFU ABCC12 (11746883_a_at) / Fold change /veh ABCC12 (11746883_a_at) / RFU TMEM136 (11760407_x_at) / Fold change /veh TMEM136 (11760407_x_at) / RFU CLDN22 /// WWC2 (11732394_at) / Fold change /veh CLDN22 /// WWC2 (11732394_at) / RFU HLA-DPB1 (11760878_x_at) / Fold change /veh HLA-DPB1 (11760878_x_at) / RFU SPINT1 (11716480_a_at) / Fold change /veh SPINT1 (11716480_a_at) / RFU GAP43 (11754022_s_at) / Fold change /veh GAP43 (11754022_s_at) / RFU A4GNT (11735810_at) / Fold change /veh A4GNT (11735810_at) / RFU PRB3 (11715151_x_at) / Fold change /veh PRB3 (11715151_x_at) / RFU TUBB4B (11761932_at) / Fold change /veh TUBB4B (11761932_at) / RFU CAPN14 (11732068_a_at) / Fold change /veh CAPN14 (11732068_a_at) / RFU TMCC2 (11721928_a_at) / Fold change /veh TMCC2 (11721928_a_at) / RFU IRGQ (11745062_a_at) / Fold change /veh IRGQ (11745062_a_at) / RFU FAM174B (11720279_a_at) / Fold change /veh FAM174B (11720279_a_at) / RFU TMPRSS4 (11748680_a_at) / Fold change /veh TMPRSS4 (11748680_a_at) / RFU FAM212B (11763350_a_at) / Fold change /veh FAM212B (11763350_a_at) / RFU PLEKHG5 (11743358_a_at) / Fold change /veh PLEKHG5 (11743358_a_at) / RFU ZSCAN30 (11745921_a_at) / Fold change /veh ZSCAN30 (11745921_a_at) / RFU CMKLR1 (11741424_a_at) / Fold change /veh CMKLR1 (11741424_a_at) / RFU LOC101060620 /// MAPK8IP1 (11723275_at) / Fold change /veh LOC101060620 /// MAPK8IP1 (11723275_at) / RFU SPTSSB (11747773_x_at) / Fold change /veh SPTSSB (11747773_x_at) / RFU PRSS12 (11739890_at) / Fold change /veh PRSS12 (11739890_at) / RFU BIN1 (11741810_x_at) / Fold change /veh BIN1 (11741810_x_at) / RFU WNT11 (11732464_a_at) / Fold change /veh WNT11 (11732464_a_at) / RFU C10orf10 (11716521_a_at) / Fold change /veh C10orf10 (11716521_a_at) / RFU C5orf56 (11738089_at) / Fold change /veh C5orf56 (11738089_at) / RFU CYB561 (11721691_x_at) / Fold change /veh CYB561 (11721691_x_at) / RFU ANKRD19P (11752326_a_at) / Fold change /veh ANKRD19P (11752326_a_at) / RFU OR2T12 /// OR2T33 /// OR2T8 (11738714_s_at) / Fold change /veh OR2T12 /// OR2T33 /// OR2T8 (11738714_s_at) / RFU VCAN (11748164_a_at) / Fold change /veh VCAN (11748164_a_at) / RFU JSRP1 (11732532_at) / Fold change /veh JSRP1 (11732532_at) / RFU KRTAP10-11 (11738290_x_at) / Fold change /veh KRTAP10-11 (11738290_x_at) / RFU MYO3A (11730013_a_at) / Fold change /veh MYO3A (11730013_a_at) / RFU EBF3 (11725865_a_at) / Fold change /veh EBF3 (11725865_a_at) / RFU CAMK2N1 (11719241_x_at) / Fold change /veh CAMK2N1 (11719241_x_at) / RFU C5orf56 (11738088_a_at) / Fold change /veh C5orf56 (11738088_a_at) / RFU OLFML3 (11715873_a_at) / Fold change /veh OLFML3 (11715873_a_at) / RFU LOC100653217 /// NTM (11731650_a_at) / Fold change /veh LOC100653217 /// NTM (11731650_a_at) / RFU MAPK11 (11762145_a_at) / Fold change /veh MAPK11 (11762145_a_at) / RFU FIZ1 (11724087_x_at) / Fold change /veh FIZ1 (11724087_x_at) / RFU OASL (11726364_x_at) / Fold change /veh OASL (11726364_x_at) / RFU SOX15 (11748057_x_at) / Fold change /veh SOX15 (11748057_x_at) / RFU CD79A (11719716_a_at) / Fold change /veh CD79A (11719716_a_at) / RFU HIST1H1D (11736915_at) / Fold change /veh HIST1H1D (11736915_at) / RFU CASKIN2 (11723855_a_at) / Fold change /veh CASKIN2 (11723855_a_at) / RFU LOC730098 (11760151_x_at) / Fold change /veh LOC730098 (11760151_x_at) / RFU OR4N2 (11742367_at) / Fold change /veh OR4N2 (11742367_at) / RFU PRRT2 (11749266_a_at) / Fold change /veh PRRT2 (11749266_a_at) / RFU SNX32 (11753110_a_at) / Fold change /veh SNX32 (11753110_a_at) / RFU CDHR5 (11726645_a_at) / Fold change /veh CDHR5 (11726645_a_at) / RFU RCAN1 (11760418_a_at) / Fold change /veh RCAN1 (11760418_a_at) / RFU FAM167A (11723789_a_at) / Fold change /veh FAM167A (11723789_a_at) / RFU FAM26E (11764081_at) / Fold change /veh FAM26E (11764081_at) / RFU ISYNA1 (11749810_s_at) / Fold change /veh ISYNA1 (11749810_s_at) / RFU ACY1 (11761880_at) / Fold change /veh ACY1 (11761880_at) / RFU 11764098_at / Fold change /veh 11764098_at / RFU SAMD14 (11745864_x_at) / Fold change /veh SAMD14 (11745864_x_at) / RFU NPB (11741838_a_at) / Fold change /veh NPB (11741838_a_at) / RFU TMPRSS6 (11731388_a_at) / Fold change /veh TMPRSS6 (11731388_a_at) / RFU KRTAP10-2 (11738614_at) / Fold change /veh KRTAP10-2 (11738614_at) / RFU ARHGAP8 /// PRR5-ARHGAP8 (11727945_x_at) / Fold change /veh ARHGAP8 /// PRR5-ARHGAP8 (11727945_x_at) / RFU KRTAP5-7 /// NADSYN1 (11734609_at) / Fold change /veh KRTAP5-7 /// NADSYN1 (11734609_at) / RFU RASL12 (11751679_a_at) / Fold change /veh RASL12 (11751679_a_at) / RFU CDKN2B (11736163_a_at) / Fold change /veh CDKN2B (11736163_a_at) / RFU PRF1 (11729649_at) / Fold change /veh PRF1 (11729649_at) / RFU, ZNF638 /// ZNF638-IT1 / Fold change vs veh, ZNF638 /// ZNF638-IT1 / RFU, PANK3 / Fold change vs veh, PANK3 / RFU, SH3YL1 / Fold change vs veh, SH3YL1 / RFU, ZEB2 / Fold change vs veh, ZEB2 / RFU, NRIP1 / Fold change vs veh, NRIP1 / RFU, PTTG1IP / Fold change vs veh, PTTG1IP / RFU, CAPN2 / Fold change vs veh, CAPN2 / RFU, MED14 / Fold change vs veh, MED14 / RFU, SNORA58 / Fold change vs veh, SNORA58 / RFU, C1orf63 / Fold change vs veh, C1orf63 / RFU, LRRFIP1 / Fold change vs veh, LRRFIP1 / RFU, NDUFAF7 / Fold change vs veh, NDUFAF7 / RFU, SLC12A2 / Fold change vs veh, SLC12A2 / RFU, IBTK / Fold change vs veh, IBTK / RFU, ESF1 / Fold change vs veh, ESF1 / Fold change vs veh, TMEM50B / RFU, TAOK1 / Fold change vs veh, TAOK1 / RFU, ACBD3 / Fold change vs veh, ACBD3 / RFU, TMA16 / Fold change vs veh, TMA16 / RFU, RWDD3 / Fold change vs veh, RWDD3 / RFU, BCAT1 / Fold change vs veh, BCAT1 / RFU, EDEM3 / Fold change vs veh, EDEM3 / RFU, TMEM33 / Fold change vs veh, TMEM33 / RFU, WDR75 / Fold change vs veh, WDR75 / RFU, AHCTF1 / Fold change vs veh, AHCTF1 / RFU, TFRC / Fold change vs veh, TFRC / RFU, ZDHHC17 / Fold change vs veh, ZDHHC17 / RFU, NOM1 / Fold change vs veh, NOM1 / RFU, ARL8B / Fold change vs veh, ARL8B / RFU, ZBTB11 / Fold change vs veh, ZBTB11 / RFU, TAMM41 / Fold change vs veh, TAMM41 / RFU, KIAA1704 /// LOC100996395 / Fold change vs veh, KIAA1704 /// LOC100996395 / RFU, ING1 / Fold change vs veh, ING1 / RFU, TRMT61B / Fold change vs veh, TRMT61B / RFU, FUBP3 / Fold change vs veh, FUBP3 / RFU, TP53 / Fold change vs veh, TP53 / RFU, TNKS2 / Fold change vs veh, TNKS2 / RFU, ZFP14 / Fold change vs veh, ZFP14 / RFU, ACTR2 / Fold change vs veh, ACTR2 / RFU, PPP3R1 / Fold change vs veh, PPP3R1 / RFU, PIK3R1 / Fold change vs veh, PIK3R1 / RFU, HNRNPA1 / Fold change vs veh, HNRNPA1 / RFU, RNF170 / Fold change vs veh, RNF170 / RFU, ZNF28 / Fold change vs veh, ZNF28 / RFU, RNGTT / Fold change vs veh, RNGTT / RFU, OGT / Fold change vs veh, OGT / RFU, BRD1 / Fold change vs veh, BRD1 / RFU, MARS / Fold change vs veh, MARS / RFU, ZNF655 / Fold change vs veh, ZNF655 / RFU, FAHD1 / Fold change vs veh, FAHD1 / RFU, BDP1 / Fold change vs veh, BDP1 / RFU, LRRCC1 / Fold change vs veh, LRRCC1 / RFU, ARID1A / Fold change vs veh, ARID1A / RFU, ZNF146 / Fold change vs veh, ZNF146 / RFU, ZNF330 / Fold change vs veh, ZNF330 / RFU, GPN3 / Fold change vs veh, GPN3 / RFU, C9orf123 / Fold change vs veh, C9orf123 / RFU, N4BP2L2 / Fold change vs veh, N4BP2L2 / RFU, ARFIP1 / Fold change vs veh, ARFIP1 / RFU, FAM179B / Fold change vs veh, FAM179B / RFU, BCL10 / Fold change vs veh, BCL10 / RFU, UHRF1BP1L / Fold change vs veh, UHRF1BP1L / RFU, BET1 / Fold change vs veh, BET1 / RFU, CNOT2 / Fold change vs veh, CNOT2 / RFU, ZNF268 / Fold change vs veh, ZNF268 / Fold change vs veh, ZNF507 / RFU, DGCR2 / Fold change vs veh, DGCR2 / RFU, WDSUB1 / Fold change vs veh, WDSUB1 / Fold change vs veh, HSP90B1 /// MIR3652 / RFU, ADSS / Fold change vs veh, ADSS / RFU, GK / Fold change vs veh, GK / RFU, ZNF148 / Fold change vs veh, ZNF148 / RFU, TAF9 / Fold change vs veh, TAF9 / RFU, SLC1A5 / Fold change vs veh, SLC1A5 / RFU, SLMO2 / Fold change vs veh, SLMO2 / RFU, ABCC4 / Fold change vs veh, ABCC4 / RFU, LOC101060439 /// RAP1B / Fold change vs veh, LOC101060439 /// RAP1B / RFU, RFX7 / Fold change vs veh, RFX7 / RFU, GTPBP10 / Fold change vs veh, GTPBP10 / RFU, CNEP1R1 / Fold change vs veh, CNEP1R1 / RFU, BIVM-ERCC5 /// ERCC5 / Fold change vs veh, BIVM-ERCC5 /// ERCC5 / RFU, ILF3 / Fold change vs veh, ILF3 / RFU 11762660_at / Fold change /veh 11762660_at / RFU VCAN (11757783_s_at) / Fold change /veh VCAN (11757783_s_at) / RFU DDX43 (11728927_at) / Fold change /veh DDX43 (11728927_at) / RFU KRT8 (11758188_x_at) / Fold change /veh KRT8 (11758188_x_at) / RFU NKD1 (11759106_at) / Fold change /veh NKD1 (11759106_at) / RFU SRD5A1 (11742802_a_at) / Fold change /veh SRD5A1 (11742802_a_at) / RFU TPSAB1 /// TPSB2 (11721975_s_at) / Fold change /veh TPSAB1 /// TPSB2 (11721975_s_at) / RFU GSTM3 (11746129_a_at) / Fold change /veh GSTM3 (11746129_a_at) / RFU IL23R (11737362_x_at) / Fold change /veh IL23R (11737362_x_at) / RFU TMEM51 (11727254_a_at) / Fold change /veh TMEM51 (11727254_a_at) / RFU PIWIL2 (11732686_x_at) / Fold change /veh PIWIL2 (11732686_x_at) / RFU ORM1 (11744905_x_at) / Fold change /veh ORM1 (11744905_x_at) / RFU CCDC152 (11743942_at) / Fold change /veh CCDC152 (11743942_at) / RFU ECM1 (11717891_a_at) / Fold change /veh ECM1 (11717891_a_at) / RFU IL23R (11748794_a_at) / Fold change /veh IL23R (11748794_a_at) / RFU TNFAIP8L3 (11732012_x_at) / Fold change /veh TNFAIP8L3 (11732012_x_at) / RFU MBOAT4 (11741988_at) / Fold change /veh MBOAT4 (11741988_at) / RFU 11764193_at / Fold change /veh 11764193_at / RFU TMEM53 (11763286_at) / Fold change /veh TMEM53 (11763286_at) / RFU MAGEB2 (11727129_at) / Fold change /veh MAGEB2 (11727129_at) / RFU TMEM200A (11744735_a_at) / Fold change /veh TMEM200A (11744735_a_at) / RFU CCDC152 (11751479_a_at) / Fold change /veh CCDC152 (11751479_a_at) / RFU FAM211A (11726209_a_at) / Fold change /veh FAM211A (11726209_a_at) / RFU RGS16 (11746705_a_at) / Fold change /veh RGS16 (11746705_a_at) / RFU VCAN (11755009_s_at) / Fold change /veh VCAN (11755009_s_at) / RFU RHOB (11743442_s_at) / Fold change /veh RHOB (11743442_s_at) / RFU RGS16 (11720943_a_at) / Fold change /veh RGS16 (11720943_a_at) / RFU RGS16 (11720944_at) / Fold change /veh RGS16 (11720944_at) / RFU, VPS4B / Fold change vs veh, VPS4B / RFU, CREB1 / Fold change vs veh, CREB1 / RFU, DNAJC13 / Fold change vs veh, DNAJC13 / RFU, GNAQ / Fold change vs veh, GNAQ / RFU, CDK5R1 / Fold change vs veh, CDK5R1 / RFU, ZRANB3 / Fold change vs veh, ZRANB3 / RFU, CUL4A / Fold change vs veh, CUL4A / RFU, CCNY / Fold change vs veh, CCNY / RFU, UFL1 / Fold change vs veh, UFL1 / RFU, COG3 / Fold change vs veh, COG3 / RFU, DIAPH2 / Fold change vs veh, DIAPH2 / RFU, SKA2 / Fold change vs veh, SKA2 / RFU, AFF3 / Fold change vs veh, AFF3 / RFU, LMF1 / Fold change vs veh, LMF1 / RFU, IPO11 / Fold change vs veh, IPO11 / RFU, DFFB / Fold change vs veh, DFFB / RFU, FOXP1 / Fold change vs veh, FOXP1 / RFU, CARD8 / Fold change vs veh, CARD8 / RFU, STRN3 / Fold change vs veh, STRN3 / RFU, ADK / Fold change vs veh, ADK / RFU, RASSF2 / Fold change vs veh, RASSF2 / RFU, WIPF1 / Fold change vs veh, WIPF1 / RFU, LARP1B / Fold change vs veh, LARP1B / RFU, RASA1 / Fold change vs veh, RASA1 / RFU, RB1 / Fold change vs veh, RB1 / RFU, PPFIA1 / Fold change vs veh, PPFIA1 / RFU, MAT2A / Fold change vs veh, MAT2A / RFU, CCT5 / Fold change vs veh, CCT5 / RFU, WDR92 / Fold change vs veh, WDR92 / RFU, CUX1 / Fold change vs veh, CUX1 / RFU, TTC7A / Fold change vs veh, TTC7A / RFU, TMEM135 / Fold change vs veh, TMEM135 / RFU, DEPTOR / Fold change vs veh, DEPTOR / RFU, CPM / Fold change vs veh, CPM / RFU, DNAJB6 / Fold change vs veh, DNAJB6 / RFU, CACNA2D3 / Fold change vs veh, CACNA2D3 / RFU, DTX4 / Fold change vs veh, DTX4 / RFU, TFCP2 / Fold change vs veh, TFCP2 / RFU, GMCL1 /// GMCL1P1 / Fold change vs veh, GMCL1 /// GMCL1P1 / RFU, AEBP2 / Fold change vs veh, AEBP2 / RFU, SNHG1 /// SNORD22 /// SNORD25 /// SNORD26 /// SNORD27 /// SNORD28 /// SNORD29 /// SNORD31 / Fold change vs veh, SNHG1 /// SNORD22 /// SNORD25 /// SNORD26 /// SNORD27 /// SNORD28 /// SNORD29 /// SNORD31 / Fold change (Aza/veh), C12orf56 (ProbeSet 11735607_a_at) / Fold change (ACY-1035/veh), C12orf56 (ProbeSet 11735607_a_at) / Fold change (Aza/veh), FGFR1OP (ProbeSet 11751329_s_at) / Fold change (ACY-1035/veh), FGFR1OP (ProbeSet 11751329_s_at) / Fold change (Aza/veh), VPS36 (ProbeSet 11739960_a_at) / Fold change (ACY-1035/veh), VPS36 (ProbeSet 11739960_a_at) / RFU SYPL1 (11715823_x_at) / Fold change /veh SYPL1 (11715823_x_at) / RFU IGFBP7 (11715501_s_at) / Fold change /veh IGFBP7 (11715501_s_at) / RFU REEP3 (11722064_at) / Fold change /veh REEP3 (11722064_at) / RFU IGLL1 (11728026_x_at) / Fold change /veh IGLL1 (11728026_x_at): dose or concentration left out as unconfirmed
Settings: MV-4-11 cells, 48 hours

Structure (SMILES): Nc1ncn([C@@H]2O[C@H](CO)[C@@H](O)[C@H]2O)c(=O)n1 [azacitidine]
- Fold change /veh SPINT1 (11716480_a_at): 1.00
